Where two headings read alike, the source gives them in different places.
What was measured:
parasites = conditions: vs N-dimethyl substituted homolog; Miskus et al 1968; cited from earlier work
Culex Pipiens [1] = assay: Biological activity on Culex pipiens (mosquito larvae in aqueous dispersion); assay type: in vivo
Excerpt: Biological Activity on Culex Pipiens (Diptera)
Mosquito larvae of the third and fourth ages were introduced into glass pots containing an aqueous dispersion of the compounds shown at 2 ppm and 0.2 ppm.
(§1) To show the variation in activity from one compound to another, depending on the species used, the activities of compounds according to this invention were investigated at different concentrations, expressed as percent of active principle, on various infesting species. The mortality percentage was computed in the same way as in the preceding examples.

Pieris Brassicae = assay: Biological activity on Pieris brassicae larvae, sprayed cut cauliflower leaves; assay type: in vivo
Excerpt: Biological Activity on Pieris Brassicae (Lepidoptera)
Cut leaves of cauliflower were sprayed with an aqueous dispersion of compound according to this invention at a 0.1% concentration. After drying, they were infested with 5-day old larvae. The mortality percentage of the control, untreated leaves, was zero.
as §1

Tetran Urt. adults = assay: Activity on Tetranychus urticae adults (Table 14); assay type: in vivo; conditions: 1% a.p., read-out: % mort. Tetran. Urt. adults
Excerpt: as §1

Tetranychus Urticae = assay: Biological activity on Tetranychus urticae eggs, bean leaf discs; assay type: in vivo
Excerpt: Biological Activity on Tetranychus Urticae (Acari)
Small discs of bean leaves were infested with acarus eggs and successively treated by spraying with an aqueous dispersion of a compound of this invention and Aminocarb as a comparison, at concentrations of 0.1 and 0.01%. The mortality percentage of the control, untreated discs, was zero.
as §1

[2] = test system: Leptinotarsa Decimlineata; assay: Biological activity on Leptinotarsa decemlineata larvae, sprayed potato seedlings; assay type: in vivo
Excerpt: Biological Activity on Leptinotarsa Decimlineata Coleoptera
Potato seedlings cultivated in pots were infested with 4-day old larvae and sprayed with an aqueous dispersion of the compounds according to this invention and Aminocarb as a comparison at doses of […]; respectively. The mortality percentage of the control, untreated seedlings, was zero.
as §1

Culex Pipiens [3] = assay: Biological activity on Culex pipiens (mosquito larvae in aqueous dispersion); assay type: in vivo; conditions: read-out: % mort. Culex Pipiens
Macrosiphum Euphorbiae = assay: Biological activity on Macrosiphum euphorbiae (aphides), potato seedlings sprayed with aqueous dispersion; assay type: in vivo
Method: Biological Activity on Macrosiphum Euphorbiae (Aphides)
Potato seedlings, cultivated in pots, were infested with adult aphide females and, after a few hours, were sprayed with an aqueous dispersion of the compounds listed in Table 6. The mortality percentage was determined 24 hours after the treatment (on control non-treated seedlings, the mortality percentage was 0).
as §1

[4] = test system: Leptinotarsa Decimlineata; assay: Biological activity on Leptinotarsa decemlineata larvae, sprayed potato seedlings; assay type: in vivo; conditions: read-out: Percent of Mortality
Musca Domestica = assay: Biological activity on Musca domestica, topical application to adults; assay type: in vivo; conditions: read-out: Percent of Mortality
Method: Biological Activity on Musca Domestica (Diptera)
Four day old adults were treated by topical application through a microsyringe with 1 mm^3 of an acetonic solution of the compounds shown in such concentrations that they received doses of 5γ/insect; 2γ/insect; 0.5γ/insect of active principle. The mortality percentage 24 hours after the treatment is reported in Table 8 (mortality of insects treated with 1 mm^3 of acetone = 0).

Meloidogyne Incognita = assay: Biological activity on Meloidogyne incognita (nematocide activity, galls on tomato seedlings); assay type: in vivo; conditions: vs control
Method: Biological Activity on Meloidogyne Incognita (Nematoda)
A 1:1 mixture of field earth and sand infested by new-born larvae and eggs of the nematode was treated by uniformly mixing with a hydroacetone dispersion (20% by vol. of acetone) at a concentration of 0.1% and of 0.02% of the compounds under test so as to get soil samples containing 100 ppm and 20 ppm, respectively, of active principle. The soil was introduced into plastic pots and after 5 days, 5 tomato seedlings about 15 cm high were transplanted into each of them. Fourteen days after transplantation, the roots of the seedlings extracted from the soil were examined in order to determine the degree of infestation by counting the galls which had formed.
The nematocide activity is expressed in Table 13 as the percentage of infestation reduction with respect to the control (seedlings transplanted into the same soil treated with a dispersion free from active principle).

[5] = Acute toxicity on white rats, administered orally; conditions: rat, in vivo, po
[6] = read-out: % mort. Culex Pipiens
[7] = read-out: % mort. Leptinot. Decemlin.
[8] = read-out: % mort. Macrosiphum Euphorbiae
[9] = 24 h, read-out: Percent of Mortality

CNC(=O)Oc1cc(C)c(NC)c(C)c1
relative insecticidal activity (parasites): only a bit less active than the N-dimethyl substituted homolog

CNC(=O)Oc1cccc(NCC=C(Cl)Cl)c1 [M 7360]
mortality at 0.2 ppm (Culex Pipiens [1]; [6]): 37%
mortality at 2 ppm (Culex Pipiens [1]; [6]): 100%
mortality at 1 % (Pieris Brassicae; Table 14, 1% a.p., read-out: % mort. Pieris Brassicae): 45%
mortality at 1 % (Tetran Urt. adults): 23%
mortality at 1 % (Tetranychus Urticae; topical, read-out: % mort. Tetran. Urt. eggs): 6%
mortality at 0.01 % [2, 7]: 0%
mortality at 0.1 % [2, 7]: 100%
mortality at 1 % [2, 7]: 100%
mortality at 0.02 ppm (Culex Pipiens [3]): 0%
mortality at 0.01 % (Macrosiphum Euphorbiae; [8]): 42%
mortality at 0.1 % (Macrosiphum Euphorbiae; [8]): 95%
mortality at 1 % (Macrosiphum Euphorbiae; [8]): 100%

CNC(=O)Oc1ccc(N(C)C)c(C)c1 [Aminocarb, reference compound]
mortality at 0.2 ppm (Culex Pipiens [1]; 0.2 ppm, 24 hours, read-out: Percent of Mortality): 0%
mortality at 2 ppm (Culex Pipiens [1]; 2 ppm, 24 hours, read-out: Percent of Mortality): 25%
mortality at 0.01 % ([4]; 0.01% concentr., larvae): 45%
mortality at 0.5 µg/insect (Musca Domestica; 0.5 γ per insect, 24 hours): 0%
mortality at 2 µg/insect (Musca Domestica; 2 γ per insect, 24 hours): 50%
mortality at 5 µg/insect (Musca Domestica; 5 γ per insect, 24 hours): 85%
Reduction of Infestation (Meloidogyne Incognita; 20 ppm in soil): 0%
Reduction of Infestation (Meloidogyne Incognita; 100 ppm in soil): 95%
LD50 [5]: 30 mg/kg
mortality at 0.01 % (Tetranychus Urticae; foliar, 0.01%, eggs, read-out: Percent of Mortality): 0%
mortality at 0.1 % (Tetranychus Urticae; foliar, 0.1%, eggs, read-out: Percent of Mortality): 40%
mortality at 0.1 % ([2]; 0.1% concentr., larvae, read-out: Percent of Mortality): 100%
mortality at 0.01 % (Macrosiphum Euphorbiae; 0.01 percent dispersion, 24 hours, read-out: Mortality Percent): 46%

CNC(=O)Oc1ccc(C)c(NCC=C(Cl)Cl)c1 [M 6430, N-methylcarbamate of 4-methyl-3-(3,3-dichloroallylamino)-phenol]
mortality at 0.2 ppm (Culex Pipiens [1]; [9]): 80%
mortality at 2 ppm (Culex Pipiens [1]; [9]): 100%
mortality at 0.1 % (Pieris Brassicae; 0.1 percent, larvae, read-out: Percent of Mortality): 100%
mortality at 0.01 % [4]: 100%
mortality at 0.5 µg/insect (Musca Domestica; 24 h): 100%
mortality at 2 µg/insect (Musca Domestica; 24 h): 100%
mortality at 5 µg/insect (Musca Domestica; 24 h): 100%
Reduction of Infestation (Meloidogyne Incognita; 20 ppm in soil): 88%
Reduction of Infestation (Meloidogyne Incognita; 100 ppm in soil): 100%
LD50 [5]: 100 mg/kg
mortality at 0.1 % ([2]; read-out: Percent of Mortality): 100%
mortality at 0.01 % (Macrosiphum Euphorbiae; 24 h, read-out: Mortality Percent): 84%
